Laboratory results reported in publication PMC12442392, “Identification of a novel ipp gene cluster responsible for 2-isopropylphenol degradation in strain Rhodococcus sp. D-6” (Applied and Environmental Microbiology, 2025).
Positions count from the first letter of the chain named.

Columns and labels:
IppB [1] = molecular target: T1, IppB (Rhodococcus sp. D-6, UniProt A0AAU7V3K6); assay: Michaelis-Menten kinetics, nonlinear regression; assay type: biochemical; details: 1.0 µM IppB, 10 µM Fe^2+; 20 mM Tris-HCl pH 7.4, 30°C; read-out: apparent Km
T1 sequence (A0AAU7V3K6 1-190): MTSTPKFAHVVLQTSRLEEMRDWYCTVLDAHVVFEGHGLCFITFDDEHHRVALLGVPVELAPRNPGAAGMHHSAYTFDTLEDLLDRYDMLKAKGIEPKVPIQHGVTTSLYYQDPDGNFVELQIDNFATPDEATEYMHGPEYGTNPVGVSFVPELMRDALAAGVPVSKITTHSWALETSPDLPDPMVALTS

IppB [2] = molecular target: T2, IppB (Rhodococcus sp. D-6, UniProt A0AAU7V3K6, E120A, form not given); assay: enzyme activity assay; assay type: biochemical; details: standard assay 200 µM substrate, 1.0 µM enzyme, 10 µM Fe^2+; 20 mM Tris-HCl pH 7.4, 30°C; Fe(II)-binding residue
T2 sequence (A0AAU7V3K6 1-190 E120A): T1 sequence (A0AAU7V3K6 1-190) with E120A

IppB [3] = molecular target: T3, IppB (Rhodococcus sp. D-6, UniProt A0AAU7V3K6, H72A, form not given); assay: enzyme activity assay; assay type: biochemical; details: standard assay 200 µM substrate, 1.0 µM enzyme, 10 µM Fe^2+; 20 mM Tris-HCl pH 7.4, 30°C; Fe(II)-binding residue
T3 sequence (A0AAU7V3K6 1-190 H72A): T1 sequence (A0AAU7V3K6 1-190) with H72A

IppB [4] = molecular target: T4, IppB (Rhodococcus sp. D-6, UniProt A0AAU7V3K6, H9A, form not given); assay: enzyme activity assay; assay type: biochemical; details: standard assay 200 µM substrate, 1.0 µM enzyme, 10 µM Fe^2+; 20 mM Tris-HCl pH 7.4, 30°C; Fe(II)-binding residue
T4 sequence (A0AAU7V3K6 1-190 H9A): T1 sequence (A0AAU7V3K6 1-190) with H9A

[5] = system: T5, IppA1A2 (IppA1 with reductase component IppA2); assay: Michaelis-Menten kinetics, nonlinear regression; assay type: biochemical, Rhodococcus sp. D-6; details: 250 µM NADH, 10 µM FAD, 1.2 µM IppA1, 0.4 µM IppA2; 20 mM Tris-HCl pH 7.4, 30°C; read-out: apparent Km
T5 construct: mixed at molar ratio 3:1 in assay; with 2-isopropylphenol monooxygenase, reductase component (flavin reductase)

SMILES | Km (IppB [1]) | activity lost (no turnover) (IppB [2]) | activity lost (no turnover) (IppB [3]) | activity lost (no turnover) (IppB [4]) | Km [5]
CC(C)c1cc(O)ccc1O [2-isopropylhydroquinone] | 29.1 ± 1.54 µM | all variants lost their activity against 2-isopropylhydroquinone | all variants lost their activity against 2-isopropylhydroquinone | all variants lost their activity against 2-isopropylhydroquinone | 
CC(C)c1ccccc1O [2-isopropylphenol] |  |  |  |  | 60.5 ± 1.27 µM
